Source: patent US10344330B2, “Glatiramer acetate response biomarker mRNA potency assay” (Mylan Inc., priority 2013, dated 2019)

Columns and labels:
[1] = test system: mouse IL-2 mRNA in primary LN cells; test: Validation: mouse IL-2 mRNA by real-time PCR in LN cells of GA-immunized SJL/J mice, three experiments (Example IV); format: cell-based; settings: for induction of IL-2 mRNA: 20 μg/mL GA, 6 hours; for IL-2 mRNA Fold Change: normalized to GAPDH
Method: Three experiments were conducted using one batch of GA (Mylan GMA). The primary LN cells were stimulated by incubation with 6 concentrations (0.3 to 20 μg/mL) of the GA for 6 hours at 37° C. Total RNA was isolated from LN cells stimulated with GA or controls. cDNA was synthesized from the RNA and the mRNA levels of seven mouse cytokines, IL-2, IL-4, IL-5, IL-10, IL-13, interferon (IFN)-γ and tumor necrosis factor (TNF)-α, were quantitatively measured by a real-time PCR method.
Female SJL/J mice at 8-9 weeks of age were immunized by injection into four footpads using a 1 mL syringe with a 27-G, ½-inch needle. Each mouse received a total injection volume of 0.1 mL of GMA emulsified in CFA (about 10 μL into each of the front footpads and 40 μL into each of the hind footpads). Animals were immunized on Day 0. After injection, animals were placed back in their cages and housed ≤6 animals per cage.
Immunized animals were sacrificed by cervical dislocation on Day 10 following immunization. […] After centrifugation at about 200×g for 10 minutes at 4° C., the cell pellet was re-suspended in 40 mL of DCCM-1 medium for cell counting. A Trypan blue exclusion method was used to determine the cell density of viable cells in the suspension. After cell counting, the LN cells were suspended in enriched DCCM-1 medium at density of 7.5×10^6 cells/mL. LN cells (0.12 mL) were plated into each well of 96-well tissue culture plates.
Dilutions of GA (Mylan GMA) were prepared using enriched DCCM-1 medium as the diluent. GA dilutions (0.12 mL) were added in the assigned wells of 96-well tissue culture plates. The same volume of LN cells (0.12 mL) isolated from immunized animals was added to the assigned wells. A positive control and a negative control were always performed in the same assay by treating LN cells with 2.5 μg/mL ConA and 10 μg/mL MBP, respectively. The LN cells with mock stimulation protocols (enriched DCCM-1 medium) were used to monitor the background mRNA level of a cytokine. The plates were incubated at 37° C. in a humidified 5% CO2 incubator for 6 hr.
At the end of incubation time, culture medium from stimulated cells was removed by aspiration and the cells were lysed using Qiagen or Promega lysis buffer. The lysate was transferred to an RNeasy Mini column (Qiagen) or wells of the SV 96 Binding Plate (Promega) for RNA isolation and cDNA synthesis. All tested samples were run in triplicate.
The SV 96 Total RNA Isolation System (Promega; Cat. No. Z3505) was used for total RNA isolation. Assay procedures were carried out according to each manufacturer's protocol. RNA samples were stored at −70° C. until use. […] The assay procedure was carried out according to the manufacturer's protocol.
The plate was centrifuged at 2000 rpm for 2 minutes at 4° C. to spin down the contents and eliminate air bubbles. Samples were prepared and run in a 96-well plate using a Life Technologies Real-Time PCR system (previously Applied Biosystems; Model No. 7500) according to the manufacturer's recommendation. The mix for the reference gene was prepared in the same way using the reference gene primer.
A relative quantitation method was used to analyze changes in mIL-2, mIL-4, mIL-5, mIL-10, mIL-13, mIFN-γ and TNF-α expression in GA treated samples relative to the untreated control (Enriched DCCM-1 treated) samples using the following program:
Levels of mouse cytokine amplicons were normalized to an internal probe level (GAPDH) from the same samples. The following equations were used to calculate the relative increase in response to GA stimulation compared to the control sample (Enriched DCCM1 sample): […]

[2] = test system: mouse IL-2 mRNA in primary LN cells; test: Mouse IL-2 mRNA in LN cells of Copaxone-, GMA- or mannitol-immunized SJL/J mice stimulated with Copaxone and GMA lots, normalized to Actβ or GAPDH (Example V); format: cell-based
Method: A real-time polymerase chain reaction method was used to measure the expression of cytokine mRNA in GA-stimulated LN cells from GA-immunized SJL/J mice. Normalization of expression with two different housekeeping genes, GAPDH and β-actin, was tested.
Each group consisted of six female SJL/J mice immunized by injection in all four footpads with a total dose of 250 μg of one lot of GA, or mannitol and no GA. Three Copaxone batches and three GMA batches were used to immunize the mice. CFA was included in both GA and mannitol immunizations. Ten days following immunization, LN cell samples isolated from the immunized mice were each stimulated with a concentration of a Copaxone lot and a GMA lot. A positive control of 2.5 μg/mL ConA treated LN cells and a negative control of 10 μg/mL MBP treated cells were included in each group.
Therefore, the Q-PCR analysis was repeated on the samples, measuring levels of IL-2, IL-4, IL-5, and IL-13, using both GAPDH and β-actin as reference gene.

Molecule: L-glutamic acid polymer with L-alanine, L-lysine and L-tyrosine, acetate (salt) [GA]
- induction of IL-2 mRNA ([1]; SJL/J, Exp 1): 31.7 fold
- induction of IL-2 mRNA ([1]; SJL/J, Exp 2): 27.8 fold
- induction of IL-2 mRNA ([1]; SJL/J, Exp 3): 42.0 fold
- induction of IL-2 mRNA (in words) ([1]; SJL/J, different concentrations of GA vs unstimulated LN cells): robust induction
- IL-2 cross-potency ([2]; Copaxone: C/A, GMA: B/D, 5 μg/mL): 108%

Molecule: Concanavalin A [ConA, reference compound]
- IL-2 mRNA Fold Change ([1]; Experiment 1, 2.5 μg/mL): 147.1 fold
- IL-2 mRNA Fold Change ([1]; Experiment 2, 2.5 μg/mL): 72.0 fold
- IL-2 mRNA Fold Change ([1]; Experiment 3, 2.5 μg/mL): 188.6 fold
- IL-2 mRNA Fold Change ([2]; Group 3 (mice immunized with GA-M2 Mylan GMA), 2.5 μg/mL, normalized to Actβ): 123.4 fold
- IL-2 mRNA Fold Change ([2]; Group 3 (mice immunized with GA-M2 Mylan GMA), 2.5 μg/mL, normalized to GAPDH): 149.4 fold
- IL-2 mRNA Fold Change ([2]; Group 4 (mice immunized with GA-C2 Copaxone), 2.5 μg/mL, normalized to Actβ): 105.0 fold
- IL-2 mRNA Fold Change ([2]; Group 4 (mice immunized with GA-C2 Copaxone), 2.5 μg/mL, normalized to GAPDH): 84.8 fold

B1: MBP: myelin basic protein, a negative control (protein, UniProt P02686 1-304, looked up)
Myelin basic protein: MGNHAGKRELNAEKASTNSETNRGESEKKRNLGELSRTTSEDNEVFGEADANQNNGTSSQDTAVTDSKRTADPKNAWQDAHPADPGSRPHLIRLFSRDAPGREDNTFKDRPSESDELQTIQEDSAATSESLDVMASQKRPSQRHGSKYLATASTMDHARHGFLPRHRDTGILDSIGRFFGGDRGAPKRGSGKDSHHPARTAHYGSLPQKSHGRTQDENPVVHFFKNIVTPRTPPPSQGKGRGLSLSRFSWGAEGQRPGFGYGGRASDYKSAHKGFKGVDAQGTLSKIFKLGGRDSRSGSPMARR
- IL-2 mRNA Fold Change ([1]; Experiment 1, 10 μg/mL): 1.0 fold
- IL-2 mRNA Fold Change ([1]; Experiment 2, 10 μg/mL): 0.9 fold
- IL-2 mRNA Fold Change ([1]; Experiment 3, 10 μg/mL): 0.8 fold
- IL-2 mRNA expression level in response to MBP treatment ([1]; SJL/J, MBP 10 μg/mL, all PCR runs): ≤ 2 fold
- IL-2 mRNA Fold Change ([2]; Group 3 (mice immunized with GA-M2 Mylan GMA), 10 μg/mL, normalized to Actβ): 1.2 fold
- IL-2 mRNA Fold Change ([2]; Group 3 (mice immunized with GA-M2 Mylan GMA), 10 μg/mL, normalized to GAPDH): 0.7 fold
- IL-2 mRNA Fold Change ([2]; Group 4 (mice immunized with GA-C2 Copaxone), 10 μg/mL, normalized to Actβ): 0.8 fold
- IL-2 mRNA Fold Change ([2]; Group 4 (mice immunized with GA-C2 Copaxone), 10 μg/mL, normalized to GAPDH): 1.3 fold
